In the data set the target is ATP-dependent translocase ABCB1 (Mus musculus, UniProt P21447). The experiment in a line: TP_TRANSPORTER: in situ brain perfusion in mdr1a(-/-) mouse. The class given is functional, organism-based. The note with it: in vivo.
Sequence of ATP-dependent translocase ABCB1 (P21447 whole entry, the tested form may be a part): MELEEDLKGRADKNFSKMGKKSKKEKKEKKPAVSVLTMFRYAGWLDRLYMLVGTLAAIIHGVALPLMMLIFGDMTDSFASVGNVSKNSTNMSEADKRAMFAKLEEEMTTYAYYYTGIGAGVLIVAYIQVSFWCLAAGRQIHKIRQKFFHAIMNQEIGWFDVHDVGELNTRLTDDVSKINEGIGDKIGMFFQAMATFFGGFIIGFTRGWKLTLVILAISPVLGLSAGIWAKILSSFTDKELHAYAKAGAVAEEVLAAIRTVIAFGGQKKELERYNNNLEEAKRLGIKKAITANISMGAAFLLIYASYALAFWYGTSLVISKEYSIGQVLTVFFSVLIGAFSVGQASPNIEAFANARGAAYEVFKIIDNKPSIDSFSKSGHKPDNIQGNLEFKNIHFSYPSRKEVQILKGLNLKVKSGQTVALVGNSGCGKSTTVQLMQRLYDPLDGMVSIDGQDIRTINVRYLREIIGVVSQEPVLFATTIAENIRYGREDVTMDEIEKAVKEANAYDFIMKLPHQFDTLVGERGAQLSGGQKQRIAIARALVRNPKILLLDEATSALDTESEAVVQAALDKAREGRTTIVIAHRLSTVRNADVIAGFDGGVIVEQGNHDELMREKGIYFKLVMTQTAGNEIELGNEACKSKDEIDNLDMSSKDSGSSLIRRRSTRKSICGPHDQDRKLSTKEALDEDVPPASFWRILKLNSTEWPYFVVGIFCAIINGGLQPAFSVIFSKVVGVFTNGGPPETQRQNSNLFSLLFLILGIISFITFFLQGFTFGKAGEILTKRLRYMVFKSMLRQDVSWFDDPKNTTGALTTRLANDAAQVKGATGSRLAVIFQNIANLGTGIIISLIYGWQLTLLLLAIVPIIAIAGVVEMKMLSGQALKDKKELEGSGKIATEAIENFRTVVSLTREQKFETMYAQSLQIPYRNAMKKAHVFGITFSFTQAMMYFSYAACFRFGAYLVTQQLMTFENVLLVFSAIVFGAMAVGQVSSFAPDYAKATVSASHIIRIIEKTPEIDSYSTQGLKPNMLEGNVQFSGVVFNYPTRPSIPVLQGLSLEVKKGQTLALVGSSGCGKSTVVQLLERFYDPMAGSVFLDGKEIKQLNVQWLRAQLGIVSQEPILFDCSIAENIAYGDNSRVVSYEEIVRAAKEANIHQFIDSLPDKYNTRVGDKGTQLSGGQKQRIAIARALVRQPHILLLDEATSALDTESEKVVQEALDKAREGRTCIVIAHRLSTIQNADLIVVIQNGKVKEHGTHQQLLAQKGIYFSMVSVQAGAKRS

Regarding `CC1(C)SSC(C)(C)[C@@H](NC(=O)[C@@H](N)Cc2ccc(O)cc2)C(=O)NCC(=O)N[C@@H](Cc2ccccc2)C(=O)N[C@H]1C(=O)O`, the Activity entry was “substrate [+]”.

The record behind these values is ChEMBL document CHEMBL2074509, “Uptake and efflux of the peptidic delta-opioid receptor agonist” (Neurosci Lett, 2001).
